The subject of one data set is A549 cells. Put plainly: Cell viability (MTT) of A549 cells under low serum / serum deprivation. Type of data set: cell-based. The method, then: (A) Karpas 1106, SU-DHL-5, SeAx and HUT-78 cells were plated at a densities of 6×10^3 in 96 well plates (100 μL total volume per well) and treated for 24 hours in a 37° C. incubator (5% CO2) with increasing concentrations of the Antp-AAC-11-LZ (363-399). 20 μL MTS reagent was then added to each well and plates were incubated for an additional 4 hours. Absorbance was measured at 490 nm using a 96-well plate reader. The extent to which the Antp-AAC-11-LZ (363-399) peptide inhibited cell proliferation was calculated as a percentage of the absorbance in each well containing the Antp-AAC-11-LZ (363-399) peptide relative to wells containing no peptide (negative control). Each bar represents the mean±s.d. from at least three independent experiments. (B) Indicated cells were plated at a densities of 4.5×10^3 in 96 well plates (100 μL total volume per well) and allowed to attach overnight in a 37° C. incubator (5% CO2). Media was removed from cells and replaced with media containing Antp-AAC-11-LZ (363-399) peptide at various concentrations (100 μL total volume per well) peptide and the plates were incubated for 24 hours. The MTT assay was then completed and data analysis was performed as described herein. […] A549 cells were plated at a densities of 4.5×10^3 in 96 well plates (100 μL total volume per well) and allowed to attach overnight in a 37° C. incubator (5% CO2). Media was removed from cells and replaced with media containing the indicated peptides at 10 μM (100 μL total volume per well) and the plates were incubated for 24 hours. The MTT assay was then completed and data analysis was performed as described herein.
(A) A549 cells were plated at a densities of 4.5×10^3 in 96 well plates (100 μL total volume per well) and allowed to attach overnight in a 37° C. incubator (5% CO2). Media was removed from cells and replaced with media containing the indicated peptides at various concentrations (100 μL total volume per well) peptide in the absence of serum and the plates were incubated for 24 hours. The MTT assay was then completed and data analysis was performed as described herein. (B) A549 or HaCat cells were plated at a densities of 4.5×10^3 in 96 well plates (100 μL total volume per well) and allowed to attach overnight in a 37° C. incubator (5% CO2). Media was removed from cells and replaced with media containing the indicated peptides at 10 μM (100 μL total volume per well) peptide in the absence of serum and the plates were incubated for 24 hours. The MTT assay was then completed and data analysis was performed as described herein.
A549 cells were plated at a densities of 4.5×10^3 in 96 well plates (100 μL total volume per well) and allowed to attach overnight in a 37° C. incubator (5% CO2). Cells were left untreated or pre-treated with 100 μM Z-VAD-FMK for 2 h. […] The MTT assay was then completed and data analysis was performed as described herein.
(A) A549 cells were plated at a densities of 4.5×10^3 in 96 well plates (100 μL total volume per well) and allowed to attach overnight in a 37° C. incubator (5% CO2). Media was removed from cells and replaced with media containing the indicated Antp-AAC-11-LZ peptides at various concentrations (100 μL total volume per well) peptide and the plates were incubated for 24 hours. The MTT assay was then completed and data analysis was performed as described herein. (B) A549 or HaCat cells were plated at a densities of 4.5×10^3 in 96 well plates (100 μL total volume per well) and allowed to attach overnight in a 37° C. incubator (5% CO2). Media was removed from cells and replaced with media containing the indicated peptides at 10 μM (100 μL total volume per well) peptide in the absence of serum and the plates were incubated for 24 hours. The MTT assay was then completed and data analysis was performed as described herein.

The test system of data set [1] is U2OS cells. Put plainly: Transwell Boyden chamber migration assay, U2OS cells. Particulars: 7.5 μM, serum-free medium with 0.4% BSA, toward 10% FBS, 24 h, FIG. 10A. Type of data set: cell-based. Here is the method: (§1) FIG. 10: Antp-AAC-11-LZ (377-399) peptide inhibits cell migration and invasion. (A) U2OS cells were added to the upper well of modified Boyden chamber (transwell) plates in serum-free medium containing 0.4% BSA with a vehicle or with either 7.5 μM of the Antp-AAC-11-LZ (377-399) peptide or the AAC-11-LZ (377-399) peptide and subjected to a transwell migration assay as described under Materials and methods. The cells were allowed to migrate toward 10% FBS for 24 h. Triplicate wells were used for each of three independent experiments. The results are expressed relative to the migration of the untreated cells (=100%). Column: Mean of three experiments. Bar: s.e. P-value was determined by Student's t-test (*P<0.01). (B) U2OS cells were seeded in a Matrigel-coated Boyden chamber in serum-free medium containing 0.4% BSA with a vehicle or with either 7.5 µM of the Antp-AAC-11-LZ (377-399) peptide or the AAC-11-LZ (377-399) peptide and subjected to a transwell migration assay as described under Materials and methods. The cells were allowed to migrate toward 10% FBS for 48 h. Triplicate wells were used for each of three independent experiments. The results are expressed relative to the migration of the untreated cells (=100%). Column: Mean of three experiments. Bar: s.e. P-value was determined by Student's t-test (*P<0.01) […]

Data set [2] deals with U2OS cells. Put plainly: Matrigel invasion assay, U2OS cells. Type of data set: cell-based. The note with it: 7.5 μM, toward 10% FBS, 48 h, FIG. 10B. Here is the method:
as §1

Data set [3] concerns A549 non-small cell lung cancer xenograft. Put plainly: A549 lung adenocarcinoma subcutaneous xenograft in nude mice. Type of data set: in vivo. The note with it: 5 mg/kg i.p., 7 daily injections. The method, then: A549 cells (1.25×10^6) were injected subcutaneously to six weeks old female nu/nu mice. Following transplantation (n=5-6 per model) tumor growth was assessed by measuring tumor size in two dimension using a Vernier caliper. Tumor volume was calculated using the formula [3.14×long axis×short axis×short axis]/6 (Kjonniksen et al., 1989). Treatment started after randomisation when tumor volumes had reached a size of approximately 100 mm^3 and consisted of intraperitoneal injection of AAC-11-LZ (377-399) or Antp-AAC-11-LZ (377-399) peptides (5 mg/kg) or vehicle (normal saline solution) each day for 7 consecutive days. Mice were weighted and the tumor size was measured by a caliper and recorded daily. Twenty eight days after beginning of the treatment mice were sacrificed. The tumors, kidney, lungs, heart, liver, pancreas and spleen were taken and fixed. Paraffin-embedded sections were prepared and stained with hematoxylin and eosin for histological analysis.

The nature of data set [4]: Toxicity of peptide injection in nude mice. Particulars: i.p. twice per week for 4 weeks.
Method: Nude mice were injected intraperitoneally twice a week for 4 weeks with normal saline solution or the indicated doses of Antp-AAC-11-LZ (363-399) peptide (n=3-4 mice per group) and were monitored daily for body weight (mean±s.e.m).
Nude mice were injected intraperitoneally twice a week for 4 weeks with normal saline solution or the indicated doses of Antp-AAC-11-LZ (377-399) peptide (n=3-4 mice per group) and were monitored daily for body weight (mean±s.e.m).
We first evaluated the toxicity of the Antp-AAC-11-LZ (363-399) peptide in nude mice that were injected intraperitoneally twice per week for 4 weeks with the Antp-AAC-11-LZ (363-399) peptide or normal saline solution (dose range: 0.8-4.8 mg peptide/kg body weight; n=3-4 mice per group).
We first evaluated the toxicity of the Antp-AAC-11-LZ (377-399) peptide in nude mice that were injected intraperitoneally twice per week for 4 weeks with the Antp-AAC-11-LZ (377-399) peptide or normal saline solution (dose range: 1-6 mg peptide/kg body weight; n=3-4 mice per group).

As to “Ac-RQIKIWFKKQNRRMKWKKLQYFARGLQVYIRQLRLALQGKT-NH2 [Antp-AAC-11-LZ (377-399)]”, the cellular viability in the data set with A549 cells (2 µM) is 5 % of control. Further, the “cytotoxicity (decrease of A549 viability) relative to comparison peptide, dose-response” value in the data set with A549 cells (various concentrations, low-serum conditions, 24 hours, FIG. 2A / 5A) is given as “markedly increased cytotoxicity potency compared to the parent peptide”. The cell migration result in the data set on U2OS cells [1] is “substantially decreased”. For the same substance, the cell invasion result in the data set with U2OS cells [2] is “prevented invasion”. The “tumor size versus AAC-11-LZ (377-399) peptide or vehicle” value in data set [3] (FIG. 11B) is on record as “significantly smaller tumors”. The mortality result in data set [4] (1-6 mg peptide/kg body weight) is given as “No mice died”. For the same substance, the “body weight difference between groups” value in data set [4] (1-6 mg peptide/kg body weight, FIG. 11A) is “no significant difference”. In data set [4] (1-6 mg peptide/kg, end of experiment), the “toxicity to kidney, lungs, heart, liver, pancreas and spleen” value is “no obvious toxicity”.

Take “AAC-11-LZ (377-399): LQYFARGLQVYIRQLRLALQGKT (SEQ ID NO: 16) (Synthetic AAC-11-LZ (377-399))”: the cell migration entry with U2OS cells [1] is listed as “didn't show any effect”. In the data set with U2OS cells [2], the cell invasion entry was “didn't show any effect”. Moreover, in data set [3] (p=0.01), the “final mean tumor volume relative to control-treated mice” value is recorded as “less than 25%”.

For the origin of these results see patent US10358469B2, “Methods and pharmaceutical compositions for the treatment of cancer” (INSERM (INSTITUT NATIONAL DE LA SANTÉ ET DE LA RECHERCHE …, priority 2014, dated 2019).
